Laboratory results published in patent publication US5643876A, “Biologically active synthetic magainin peptides” (The United States of America as represented by the …, priority 1992, dated 1997).
No end group written: not given here.

Experiments:
[1] = system: Acinetobacter caloaceticus (19606); assay: Minimal inhibitory concentration in trypticase soy broth; type: cell-based
Excerpt: (§1) Table III also lists the range of minimal inhibitory concentrations for various organisms assayed in trypticase soy broth. These determinations were made following standard techniques well known in the art and described in such publications as, DIFCO Manual, 10th edition, 1984, pages 78-80.

Candida albicans (14053) = assay: as above; type: cell-based
Excerpt: as §1

[2] = system: Citrobacter freundii (8090); assay: as above; type: cell-based
Excerpt: as §1

[3] = system: Enterobacter aerogenes (13048); assay: as above; type: cell-based
Excerpt: as §1

[4] = system: Enterobacter sonnei (23355); assay: as above; type: cell-based
Excerpt: as §1

Eschericia coli (25922) = assay: as above; type: cell-based
Excerpt: as §1

Eschericia coli D31 = assay: as above; type: cell-based
Excerpt: as §1

Proteus vulgaris (13315) = assay: as above; type: cell-based
Excerpt: as §1

[5] = system: Pseudomonas aeruginosa (27853); assay: as above; type: cell-based
Excerpt: as §1

[6] = system: Salmonella typhimurium (14028); assay: as above; type: cell-based
Excerpt: as §1

[7] = system: Serratia marcescens (8100); assay: as above; type: cell-based
Excerpt: as §1

Shigella sonnei (25931) = assay: as above; type: cell-based
Excerpt: as §1

[8] = system: Staphyloccus epidermidis (1228); assay: as above; type: cell-based
Excerpt: as §1

[9] = system: Staphylococcus aureus (25923); assay: as above; type: cell-based
Excerpt: as §1

[10] = system: Streptococcus faecalis (19433); assay: as above; type: cell-based
Excerpt: as §1

[11] = system: Streptococcus pyogenes (19615); assay: as above; type: cell-based
Excerpt: as §1

Amoeba proteus = assay: Antiprotozoan activity, physical lysis by light microscopy; type: cell-based; settings: approximate concentration, visual assessment by light microscopy
Excerpt: (§2) Table IV lists the approximate concentration of Magainins which induces physical lysis of several representative protozoan species. These determinations were made by visual assessment of the treated organisms by light microscopy. Of course, the optimal effective antimicrobial concentration of a particular Magainin can be easily determined in a routine manner without undue experimentation by techniques well known to one of ordinary skill in the art.

Euglena gracilis = assay: as above; type: cell-based; settings: approximate concentration, visual assessment by light microscopy
Excerpt: as §2

Paramecium caudatum = assay: as above; type: cell-based; settings: approximate concentration, visual assessment by light microscopy
Excerpt: as §2

Acanthomeba castellani = assay: Comparison of potencies, MIC (Table V); type: cell-based
Excerpt: (§3) It is pointed that the addition of a carboxyl-terminal amide to Magainin II results in about a 5-fold increase in potency of the peptide in several systems when compared to Magainin II. This simple modification illustrates one of several ways of modifying the polypeptides of the present invention.

E. coli D-31 = assay: Comparison of potencies, MIC (Table V); type: cell-based; settings: E. coli D-31 (Table V)
Excerpt: as §3

Pseudomonas aeruginosa = assay: Comparison of potencies, MIC (Table V); type: cell-based
Excerpt: as §3

Saccharomyces cerviscae = assay: Comparison of potencies, MIC (Table V); type: cell-based
Excerpt: as §3

E. coli Y1088 = assay: Zone of inhibition on lawn of E. coli Y1088; type: cell-based
[12] = system: Klebisiella pneumonia (13883); assay: Minimal inhibitory concentration in trypticase soy broth; type: cell-based
Excerpt: as §1

Vero Cells = assay: Cytotoxicity by loss of Trypan Blue exclusion; type: cell-based, monkey; settings: 30 minutes after addition, MEM with 10% fetal calf serum
Excerpt: (§4) This activity is considered a significant attribute of the Magainin peptides in that it permits their use in the killing of animal cells. […] The most resistant appears to be the epithelial cell from the oral mucosa. The most sensitive is a transformed monkey kidney cell. […] This includes anti-tumor activity, in vivo cytolysis or growth inhibition of malignant cells, such as in leukemias and selective reduction in specific cell populations (e.g., removal of lymphocytes from blood).
(§5) Cells were suspended in standard minimal Eagles medium containing 10% fetal calf serum. VERO cells and KB cells were obtained from the American Type Culture Collection. Human diploid fibroblasts were propagated from a primary dermal biopsy. Human lymphocytes were collected from a buffy coat preparation by centrifugation in ficoll-hyapaque medium. Human buccal epithelium was obtained by scraping the oral mucosa with a glass cover-slip and resuspending the cellular scraping in MEM. Cytotoxicity was determined by loss of Trypan Blue exclusion, following addition of dye to the medium. Cytotoxicity was assessed 30 minutes after addition of the peptide. Concentration noted represents the concentration of peptide resulting in 50% toxicity as determined visually by light microscopic examination of the treated cells.

[13] = system: Human Buccal Epithelial Cells; assay: Cytotoxicity by loss of Trypan Blue exclusion; type: cell-based; settings: 30 minutes after addition
Excerpt: as §4, §5

[14] = system: Human Diploid Fibroblasts; assay: Cytotoxicity by loss of Trypan Blue exclusion; type: cell-based; settings: 30 minutes after addition
Excerpt: as §4, §5

Human KB Cells = assay: Cytotoxicity by loss of Trypan Blue exclusion; type: cell-based; settings: 30 minutes after addition
Excerpt: as §4, §5

[15] = system: Peripheral Human Lymphocytes; assay: Cytotoxicity by loss of Trypan Blue exclusion; type: cell-based; settings: 30 minutes after addition
Excerpt: as §4, §5

human sperm = assay: Spermicidal activity, sperm motility by light microscopy; type: cell-based; settings: human sperm in phosphate buffered saline, room temperature
Protocol: Magainin II(g) was added in various concentrations to a suspension of human sperm in phosphate buffered saline. Motility was assayed by visual inspection under a light microscope. Observations were conducted at room temperature (about 22°-25° C.). The approximate number of motile sperm observed in 20 independent fields was noted as a function of concentration. Magainin II(g) inhibits sperm motility by 50% at 35 μg/ml and by 100% at 75 μg/ml.

Plasmodium gallinaceum = assay: Activity against malarial parasite, direct light microscopy; type: cell-based; settings: 100 ug/ml in phosphate buffered saline, within seconds
Protocol: Observations of activity were conducted by direct light microscopy. A sample of female and male zygotic forms of the chicken malarial parasite were suspended in phosphate buffered saline. Magainin II(g) was added to each at 100 ug/ml.

HTLV III = assay: Anti-viral activity against HTLV III in SUPT1 tester cells; type: cell-based; settings: 200 μg/ml, virus preincubated 37° C. 30 min
Protocol: HTLV III was obtained from culture media from the producing cell line A.3101. The media was diluted with MEM containing 10% fetal calf serum (FCS) to a viral concentration of about 10^4 pfu/ml. Magainin II(g) was added to the viral innoculum (1 ml) to a concentration of 200 μg/ml and incubated at 37° C. for 30 min. The viral innoculum was then added to a well containing 10^3 tester cells (cell line, SUPT1) and 1 ml of MEM with 10% FCS. Viral activity was assessed by formation of syncytia and cell death in the test cell culture as compared with cell cultures unexposed to Magainin peptides.

[16] = system: Shigella flexneri (12022); assay: Minimal inhibitory concentration in trypticase soy broth; type: cell-based
Excerpt: as §1

Substance | Minimal Inhibitory Concentration [1] [µg/mL] | Minimal Inhibitory Concentration (Candida albicans (14053)) [µg/mL] | Minimal Inhibitory Concentration [2] [µg/mL] | Minimal Inhibitory Concentration [3] [µg/mL] | Minimal Inhibitory Concentration (Eschericia coli (25922)) [µg/mL] | Minimal Inhibitory Concentration (Eschericia coli D31) [µg/mL] | Minimal Inhibitory Concentration (Proteus vulgaris (13315)) [µg/mL] | Minimal Inhibitory Concentration [5] [µg/mL] | Minimal Inhibitory Concentration [6] [µg/mL] | Minimal Inhibitory Concentration [7] [µg/mL] | Minimal Inhibitory Concentration [8] [µg/mL] | Minimal Inhibitory Concentration [9] [µg/mL] | Minimal Inhibitory Concentration [10] [µg/mL] | Minimal Inhibitory Concentration [11] [µg/mL] | Concentration required for osmotic lysis (Amoeba proteus) [µg/mL] | Concentration required for osmotic lysis (Euglena gracilis) [µg/mL] | Concentration required for osmotic lysis (Paramecium caudatum) [µg/mL] | Zone of Inhibition on Lawn of E. coli Y1088 Generated by 50 μg of the Peptide (E. coli Y1088) [mm] | also measured
GIGKFLHSAKKFGKAFVGEIMNS [Magainin II] | 1 to 7 | 35 to 70 | 7 to 35 | 7 to 35 | 1 to 7 | 1 to 10 | > 100 | 35 to 70 | 35 to 70 | > 100 | 7 to 35 | 35 to 70 | 35 to 70 | 1 to 7 | 5 | 5 | 5 | – | Minimal Inhibitory Concentration [4]: 1 to 7 µg/mL; Minimal Inhibitory Concentration (Shigella sonnei (25931)): 1 to 7 µg/mL; MIC (Acanthomeba castellani): 15 µg/mL; MIC (E. coli D-31): 10 µg/mL; MIC (Pseudomonas aeruginosa): 70 µg/mL; MIC (Saccharomyces cerviscae): 50 µg/mL
KFLHSAKKFGKAFVGEIMNS [Magainin II(c)] | – | – | – | – | – | – | – | – | – | – | – | – | – | – | – | – | – | 10 | –
LHSAKKFGKAFVGEIMNS [Magainin II(e), (NH2)LHSAKKFGKAFVGEIMNS(OH)] | – | – | – | – | – | – | – | – | – | – | – | – | – | – | – | – | – | 1 | –
GKFLHSAKKFGKAFVGEIMNS [Magainin II(b)] | – | – | – | – | – | – | – | – | – | – | – | – | – | – | – | – | – | 10 | –
GIGKFLHSAKKFGKAFVGEIMN [Magainin III] | 7 to 35 | > 100 | 7 to 35 | > 100 | 7 to 35 | 1 to 10 | > 100 | 35 to 70 | 35 to 70 | > 100 | 35 to 70 | > 100 | > 100 | 7 to 35 | 5 | 5 | 5 | – | Minimal Inhibitory Concentration [12]: > 100 µg/mL
FLHSAKKFGKAFVGEIMNS [Magainin II(d), (NH2)FLHSAKKFGKAFVGEIMNS(OH)] | – | – | – | – | – | – | – | – | – | – | – | – | – | – | – | – | – | 2 | –
GIGKFLHSAKKFGKAFVGEIMNS-NH2 [Magainin II(g)] | – | – | – | – | – | – | – | – | – | – | – | – | – | – | – | – | – | 15 | MIC (Acanthomeba castellani): 3 µg/mL; MIC (E. coli D-31): 2 µg/mL; MIC (Pseudomonas aeruginosa): 15 µg/mL; MIC (Saccharomyces cerviscae): 10 µg/mL; Concentration of peptide resulting in 50% toxicity (Vero Cells): 25 µg/mL; Concentration of peptide resulting in 50% toxicity [13]: 500 µg/mL; Concentration of peptide resulting in 50% toxicity [14]: 250 µg/mL; Concentration of peptide resulting in 50% toxicity (Human KB Cells): 125 µg/mL; Concentration of peptide resulting in 50% toxicity [15]: 75 µg/mL; Concentration that inhibits sperm motility by 50% (human sperm): 35 µg/mL; Concentration that inhibits sperm motility by 100% (human sperm): 75 µg/mL; Effect on female and male zygotic forms of Plasmodium gallinaceum (Plasmodium gallinaceum): both forms underwent evident physical lysis; Reverse transcriptase activity in culture fluids (HTLV III): no greater reverse transcriptase activity than uninfected cells; Viral activity by formation of syncytia and cell death in test cell culture (HTLV III; 2 weeks incubation): appeared identical to cultures not exposed to virus
GIGKFLHSAGKFGKAFVGEIMKS [Magainin I] | 7 to 35 | > 100 | > 100 | > 100 | 7 to 35 | 1 to 20 | > 100 | > 100 | > 100 | > 100 | > 100 | > 100 | > 100 | 7 to 35 | 5 | 5 | 5 | – | Minimal Inhibitory Concentration [12]: > 100 µg/mL; Minimal Inhibitory Concentration [16]: 35 to 70 µg/mL
GIGKYLHSAKKFGKAFVGEIMNS-NH2 [Magainin II(h)] | – | – | – | – | – | – | – | – | – | – | – | – | – | – | – | – | – | 7 | –
HSAKKFGKAFVGEIMNS [Magainin II(f), (NH2)HSAKKFGKAFVGEIMNS(OH)] | – | – | – | – | – | – | – | – | – | – | – | – | – | – | – | – | – | 0 | Effect on female and male zygotic forms of Plasmodium gallinaceum (Plasmodium gallinaceum): no visible effect
